Our source for the IC50 values is patent publication US12649744B2, “N-(pyridin-2-yl)-6,7,8,9-tetrahydro-5h-5,8-epiminocyclohepta[c]pyridine-10-carboxamide derivatives and similar compounds as GPR65 modulators for the treatment of cancer” (PATHIOS THERAPEUTICS LIMITED, priority 2020, dated 2026).

In one assay the target is human recombinant GPR65 (Homo sapiens, UniProt Q8IYL9). The experiment in a line: Human GPR65 cAMP HTRF antagonist assay. It counts as cell-based.
Chain of human recombinant GPR65 (Q8IYL9 whole entry): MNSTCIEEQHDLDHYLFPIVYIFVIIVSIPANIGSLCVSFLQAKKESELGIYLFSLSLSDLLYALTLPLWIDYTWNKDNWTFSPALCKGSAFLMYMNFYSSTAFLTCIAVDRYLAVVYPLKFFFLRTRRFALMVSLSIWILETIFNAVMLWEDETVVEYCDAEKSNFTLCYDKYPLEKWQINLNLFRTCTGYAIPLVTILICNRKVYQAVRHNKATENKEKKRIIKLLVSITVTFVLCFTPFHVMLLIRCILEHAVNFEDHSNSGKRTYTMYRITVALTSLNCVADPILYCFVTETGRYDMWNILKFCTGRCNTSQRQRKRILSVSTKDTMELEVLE
Settings: not given
The source says: The “Human GPR65 cyclic adenosine monophosphate (cAMP) Homogeneous Time Resolved Fluorescence (HTRF) antagonist assay”, or simply “cAMP assay”, as described below, can be used to measure the potency of GPR65 modulators, which is expressed as the concentration of compound required to reduce the increase in cAMP concentration upon GPR65 activation by 50% (i.e. an IC50).
Human GPR65 Cyclic Adenosine Monophosphate (cAMP) Homogeneous Time Resolved Fluorescence (HTRF) Antagonist Assay Procedure
IC50 data was obtained by the following procedure:
1321N1 human astrocytoma cells stably expressing human recombinant GPR65 (1321N1-hrGPR65 cells, EuroscreenFast) were cultured according to the vendor's instructions.
Compounds were tested for their ability to antagonise GPR65, through measuring the concentration of cytoplasmic cAMP following treatment of the cells at a pH of 7.2 to activate GPR65 signalling and addition of the compound to be tested. The extent to which the expected rise in cAMP concentration upon GPR65 activation was suppressed by the added compound is indicative of its potency. The assay was carried out according to EuroscreenFast assay methodology as follows.
On the day of the assay, test compounds were added to 384-well, low volume, white microtiter plates by acoustic dispensing. KRH buffer (5 mM KCl, 1.25 mM MgSO4, 124 mM NaCl, 25 mM HEPES, 13.3 mM Glucose, 1.25 mM KH2PO4 and 1.45 mM CaCl2) was adjusted to pH 6.5, pH 7.6 and pH 8.4 by adding NaOH. 1321N1-hGPR65 cells were rapidly thawed and diluted in KRH, pH 7.6 prior to centrifugation at 300×g for 5 min and resuspension in assay buffer (KRH, pH 7.6, supplemented with 1 mM 3-isobutyl-1-methylxanthine (IBMX) and 200 μM ethylenediaminetetraacetic acid (EDTA)). Cells were added to assay plates at a density of 2,000 cells per well in a volume of 5 μl. Assay plates were briefly centrifuged at 100×g and then incubated at room temperature for 30 min. Cells were stimulated by the addition of 5 μL KRH, pH 6.5, to achieve an assay pH of 7.2, while control wells received 5 μl KRH, pH 8.4 to achieve an assay pH of 7.9. Assay plates were briefly centrifuged at 100×g and then incubated at room temperature for 30 min.
Accumulation of cAMP was detected by cAMP HTRF kit (Cisbio). d2-labeled cAMP and cryptate-labeled anti-cAMP antibody in Lysis and Detection Buffer (Cisbio) were added to assay plates, and the plates were incubated at room temperature for 1 h. HTRF measurements were performed using a Pherastar FSX instrument. Acceptor and donor emission signals were measured at 665 nm and 620 nm, respectively, and HTRF ratios were calculated as signal665 nm/signal620nm×10^4. Data were normalised to high and low control values and fitted with 4-parameter logistic regression to determine hGPR65 IC50 values for the test compounds, which are shown in Table 1.
(TR-FRET usually uses a lanthanide donor and a delayed reading to cut background.)
`O=C(Nc1cncc(Cl)c1)N1C2CCC1c1ccnc(F)c1C2` (racemic) [Compound 9, (±)-N-(5-chloropyridin-3-yl)-1-fluoro-6,7,8,9-tetrahydro-5H-5,8-epiminocyclohepta-[c]pyridine-10-carboxamide]: the IC50 (as a rule, the point on the concentration scale where inhibition reaches its midpoint) was < 500 nM.

Staying with this assay, now noted: 1321N1-hrGPR65 cells, assay pH of 7.2, cAMP HTRF; read-out: hGPR65 IC50.
In the case of `CCc1nnc(NC(=O)N2[C@H]3CC[C@@H]2c2ccnc(F)c2C3)s1` [Compound 26, (5R,8S)-N-(5-ethyl-1,3,4-thiadiazol-2-yl)-1-fluoro-6,7,8,9-tetrahydro-5H-5,8-epiminocyclohepta[c]pyridine-10-carboxamide], the IC50 was in the range of 500 to 5000 nM.

As for `N#Cc1ccc(NC(=O)N2[C@H]3CC[C@@H]2c2ccnc(F)c2C3)nc1C(F)(F)F` [Compound 37, (5R,8S)-N-(5-Cyano-6-(trifluoromethyl)pyridin-2-yl)-1-fluoro-6,7,8,9-tetrahydro-5H-5,8-epiminocyclohepta[c]pyridine-10-carboxamide], the IC50 lay within 500 to 5000 nM. Same read-out and setting: the value for `O=C(Nc1cc(Cl)c(Cl)cn1)N1[C@H]2CC[C@@H]1c1c[nH]c(=O)cc1C2` [Compound 4, (6S,9R)-N-(4,5-dichloropyridin-2-yl)-3-oxo-3,5,6,7,8,9-hexahydro-2H-6,9-epiminocyclo-hepta[c]pyridine-10-carboxamide] was < 500 nM; that for `O=C(Nc1ccc2nc(C(F)(F)F)ccc2c1)N1[C@H]2CC[C@@H]1c1ccnc(F)c1C2` [Compound 44, (5R,8S)-1-Fluoro-N-(2-(trifluoromethyl)quinolin-6-yl)-6,7,8,9-tetrahydro-5H-5,8-epiminocyclohepta[c]pyridine-10-carboxamide] was < 500 nM; that for `O=C(Nc1cc2cn(C(F)F)nc2cn1)N1[C@H]2CC[C@@H]1c1ccnc(F)c1C2` [Compound 27, (5R,8S)-N-(2-(difluoromethyl)-2H-pyrazolo[3,4-c]pyridin-5-yl)-1-fluoro-6,7,8,9-tetrahydro-5H-5,8-epiminocyclohepta[c]pyridine-10-carboxamide] was > 5000 nM. Same read-out and setting: in the case of `O=C(Nc1nnc(C2CCOCC2)s1)N1[C@H]2CC[C@@H]1c1ccnc(F)c1C2` [Compound 32, (5R,8S)-1-Fluoro-N-(5-(tetrahydro-2H-pyran-4-yl)-1,3,4-thiadiazol-2-yl)-6,7,8,9-tetrahydro-5H-5,8-epiminocyclohepta[c]pyridine-10-carboxamide] it was > 5000 nM; in that of `O=C(Nc1ccc(Cl)c(Cl)n1)N1[C@H]2CC[C@@H]1c1c[nH]c(=O)cc1C2` [Compound 5, (6S,9R)-N-(5,6-dichloropyridin-2-yl)-3-oxo-3,5,6,7,8,9-hexahydro-2H-6,9-epiminocyclo-hepta[c]pyridine-10-carboxamide], > 5000 nM; in that of `O=C(Nc1nnc(-c2ccccc2)o1)N1[C@H]2CC[C@@H]1c1ccnc(F)c1C2` [Compound 45, (5R,8S)-1-Fluoro-N-(5-phenyl-1,3,4-oxadiazol-2-yl)-6,7,8,9-tetrahydro-5H-5,8-epiminocyclohepta[c]pyridine-10-carboxamide], 500 to 5000 nM.

As for `N#Cc1cnc(NC(=O)N2[C@H]3CC[C@@H]2c2ccnc(F)c2C3)c(C(F)(F)F)c1` [Compound 38, (5R,8S)-N-(5-Cyano-3-(trifluoromethyl)pyridin-2-yl)-1-fluoro-6,7,8,9-tetrahydro-5H-5,8-epiminocyclohepta[c]pyridine-10-carboxamide], the IC50 is < 500 nM. `O=C(Nc1nnc(-c2ccccc2)s1)N1[C@H]2CC[C@@H]1c1ccnc(F)c1C2` [Compound 33, (5R,8S)-1-Fluoro-N-(5-phenyl-1,3,4-thiadiazol-2-yl)-6,7,8,9-tetrahydro-5H-5,8-epiminocyclohepta[c]pyridine-10-carboxamide]: the IC50 was < 500 nM. Same read-out and setting: in the case of `O=C(Nc1nc(Cl)c(Cl)s1)N1[C@H]2CC[C@@H]1c1ccnc(F)c1C2` [Compound 30, (5R,8S)-N-(4,5-Dichlorothiazol-2-yl)-1-fluoro-6,7,8,9-tetrahydro-5H-5,8-epiminocyclohepta[c]pyridine-10-carboxamide] it was < 500 nM. Same read-out and setting: the value for `O=C(Nc1ccc(C(F)(F)F)cn1)N1[C@H]2CC[C@@H]1c1ccnc(F)c1C2` [Compound 19, (5R,8S)-1-fluoro-N-(5-(trifluoromethyl)pyridin-2-yl)-6,7,8,9-tetrahydro-5H-5,8-epiminocyclohepta[c]pyridine-10-carboxamide] was < 500 nM; that for `O=C(Nc1cc(Cl)c(C(F)(F)F)cn1)N1[C@H]2CC[C@@H]1c1c[nH]c(=O)cc1C2` [Compound 17, (6S,9R)-N-(4-chloro-5-(trifluoromethyl)pyridin-2-yl)-3-oxo-3,5,6,7,8,9-hexahydro-2H-6,9-epiminocyclohepta[c]pyridine-10-carboxamide] was < 500 nM; that for `Cn1nc(NC(=O)N2[C@H]3CC[C@@H]2c2ccnc(F)c2C3)cc1C(F)(F)F` [Compound 48, (5R,8S)-1-fluoro-N-(1-methyl-5-(trifluoromethyl)-1H-pyrazol-3-yl)-6,7,8,9-tetrahydro-5H-5,8-epiminocyclohepta[c]pyridine-10-carboxamide] was > 5000 nM. The same measure, in the same setting: in the case of `O=C(Nc1ncc(C(F)(F)F)cn1)N1[C@H]2CC[C@@H]1c1ccnc(F)c1C2` [Compound 25, (5R,8S)-1-fluoro-N-(5-(trifluoromethyl)pyrimidin-2-yl)-6,7,8,9-tetrahydro-5H-5,8-epiminocyclohepta[c]pyridine-10-carboxamide] it was 500 to 5000 nM; in that of `Cc1nonc1NC(=O)N1[C@H]2CC[C@@H]1c1ccnc(F)c1C2` [Compound 21, (5R,8S)-1-fluoro-N-(4-methyl-1,2,5-oxadiazol-3-yl)-6,7,8,9-tetrahydro-5H-5,8-epiminocyclohepta[c]pyridine-10-carboxamide], 500 to 5000 nM. Regarding `O=C(Nc1cc(C(F)(F)F)ncc1F)N1[C@H]2CC[C@@H]1c1ccnc(F)c1C2` [Compound 18, (5R,8S)-1-fluoro-N-(5-fluoro-2-(trifluoromethyl)pyridin-4-yl)-6,7,8,9-tetrahydro-5H-5,8-epiminocyclohepta[c]pyridine-10-carboxamide], the IC50 is 500 to 5000 nM. Still for that read-out and setting: the value for `O=C(Nc1cnc(C(F)(F)F)cn1)N1C2CCC1c1cncnc1C2` (racemic) [Compound 6, (±)-N-(5-(trifluoromethyl)pyrazin-2-yl)-6,7,8,9-tetrahydro-5H-5,8-epiminocyclohepta-[d]pyrimidine-10-carboxamide] was > 5000 nM; that for `O=C(Nc1cc(C(F)(F)F)on1)N1[C@H]2CC[C@@H]1c1c[nH]c(=O)cc1C2` [Compound 49, (6S,9R)-3-oxo-N-(5-(trifluoromethyl)isoxazol-3-yl)-3,5,6,7,8,9-hexahydro-2H-6,9-epiminocyclohepta[c]pyridine-10-carboxamide] was < 500 nM. Same read-out and setting: the value for `COC(=O)c1cc(NC(=O)N2[C@H]3CC[C@@H]2c2ccnc(F)c2C3)no1` [Compound 51, methyl-3-((5R,8S)-1-fluoro-6,7,8,9-tetrahydro-5H-5,8-epiminocyclohepta[c]pyridine-10-carboxamido)isoxazole-5-carboxylate] was 500 to 5000 nM. Same read-out and setting: the value for `O=C(Nc1ccc2nc(C(F)(F)F)ccc2c1)N1[C@H]2CC[C@@H]1c1c[nH]c(=O)cc1C2` [Compound 10, (6S,9R)-3-oxo-N-(2-(trifluoromethyl)quinolin-6-yl)-3,5,6,7,8,9-hexahydro-2H-6,9-epiminocyclohepta[c]pyridine-10-carboxamide] was < 500 nM; that for `O=C(Nc1cc(Cl)c(C(F)(F)F)cn1)N1[C@H]2CC[C@@H]1c1ccnc(F)c1C2` [Compound 1, (5R,8S)-N-(4-chloro-5-(trifluoromethyl)pyridin-2-yl)-1-fluoro-6,7,8,9-tetrahydro-5H-5,8-epiminocyclohepta[c]pyridine-10-carboxamide] was < 500 nM; that for `O=C(Nc1nc(Cl)c(Cl)cc1F)N1[C@H]2CC[C@@H]1c1ccnc(F)c1C2` [Compound 20, (5R,8S)-N-(5,6-dichloro-3-fluoropyridin-2-yl)-1-fluoro-6,7,8,9-tetrahydro-5H-5,8-epiminocyclohepta[c]pyridine-10-carboxamide] was 500 to 5000 nM.

For `O=C(Nc1cnc(-c2ccccc2)s1)N1[C@H]2CC[C@@H]1c1ccnc(F)c1C2` [Compound 29, (5R,8S)-1-Fluoro-N-(2-phenylthiazol-5-yl)-6,7,8,9-tetrahydro-5H-5,8-epiminocyclohepta[c]pyridine-10-carboxamide], the IC50 is < 500 nM.
